These results are taken from patent US6448401B1, “Process for water soluble azole compounds” (Bristol-Myers Squibb Company, priority 2000, dated 2002).

Data set [1] can be described thus: aqueous solubility. As to conditions: for solubility (in words): crystalline salts.
Data set [2] can be described thus: conversion of prodrug to parent drug in vivo.
Data set [3] is described as follows: stability (in solution / of salts). As to conditions: for stability (in words): crystalline salts.

≈ marks a conversion by molar mass, not a printed value. A value given as a limit tells only on which side of the number the result lay.

A word on the solubility: it is how much of the substance goes into solution per volume. Read a high solubility as a readily soluble substance. Take `C[C@@H](c1nc(-c2ccc(C#N)cc2)cs1)[C@](O)(Cn1cncn1)c1ccc(F)cc1F` [(2R,3R)-3-[4-(4-cyanophenyl)thiazol-2-yl]-2-(2,4-difluorophenyl)-1-(1 H-1,2,4-triazol-1-yl)-butan-2-ol, reference compound]: the solubility in data set [1] (water, pH 6.8, water) worked out at 0.6 µg/mL (≈ 0.00137 mM).
Consider `C[C@@H](c1nc(-c2ccc(C#N)cc2)cs1)[C@@](Cn1cncn1)(OCOP(=O)(O)O)c1ccc(F)cc1F` [Example 2, (2R,3R)-3-[4-(4-cyanophenyl)thiazol-2-yl]-2-(2,4-difluorophenyl)-1-(1H-1,2,4-triazol-1-yl)-2-[(dihydrogenphosphonoxy)methoxy]butane], for which the solubility in data set [1] (aqueous solution, pH 4.3, aqueous buffer) is 5000 to 6000 µg/mL (≈ 9.13 to 11 mM); in data set [1] (aqueous solution, pH 7, aqueous buffer) it was > 10000 µg/mL. Further, in data set [2], the “conversion to parent drug in vivo” value was “readily converted to parent drug in vivo”. For the same compound, in data set [3] (in solution), the stability in solution result was “stable in solution”.
Take `C[C@@H](c1nc(-c2ccc(C#N)cc2)cs1)[C@@](Cn1cncn1)(OCOP(=O)(O)O)c1ccc(F)cc1F.NCCCC[C@H](N)C(=O)O.NCCCC[C@H](N)C(=O)O` [Example 3, Bis lysine salt of (2R,3R)-3-[4-(4-cyanophenyl)thiazol-2-yl]-2-(2,4-difluorophenyl)-1-(1H-1,2,4-triazol-1-yl)-2-[(dihydrogenphosphonoxy)methoxy]butane]: the “solubility (in words)” value in data set [1] is on record as “good solubility”. Besides, the “stability (in words)” value in data set [3] is “good solubility and stability”.
As to `CC(C)(C)N.C[C@@H](c1nc(-c2ccc(C#N)cc2)cs1)[C@@](Cn1cncn1)(OCOP(=O)(O)O)c1ccc(F)cc1F` [Example 4, Tert-butyl amine salt of (2R,3R)-3-[4-(4-cyanophenyl)thiazol-2-yl]-2-(2,4-difluorophenyl)-1-(1H-1,2,4-triazol-1-yl)-2-[(dihydrogenphosphonoxy)methoxy]butane], the “solubility (in words)” value in data set [1] is “good solubility”. For the same compound, the “stability (in words)” value in data set [3] is “good solubility and stability”.
